Assay results from patent publication US20250346550A1, “METHODS OF MODULATING ENDONUCLEASE G USING RESVERATROL AND ITS DERIVATIVES” (THE REGENTS OF THE UNIVERSITY OF COLORADO A BODY CORPORATE, priority 2022, published 2025).

Columns and labels:
Format in all cases: in vivo, C. elegans
[1] = tested on: paternal uaDf5 mtDNA in cross-fertilized embryos; test: PCR-based PME assay (paternal uaDf5 mtDNA); settings: 50 μM; mock: detected up to 64-cell stage embryos
Excerpt: FIG. 7. Effects of different dosages of resveratrol isomers on PME. a, b, The effects of different dosages of cis-resveratrol (a) and trans-resveratrol (b) on PME. The numbers of MTR-stained paternal mitochondrial clusters in 64-cell embryos (a) or 16-cell embryos (b) from mating of MTR-stained N2 males with N2 hermaphrodites in the presence of the indicated concentrations of resveratrol isomers were scored. […] A single cross-fertilized embryo or larva (MTR- or GFP-positive) at the indicated stage was analyzed by PCR. uaDf5/+ and N2 hermaphrodites were controls.
We confirmed these findings using a polymerase chain reaction (PCR)-based PME assay, which monitors the fate of paternal mtDNA in fertilized eggs from males carrying a 3053 bp mtDNA deletion allele (uaDf5) in a heteroplasmic mixture with wild-type mtDNA (FIG. 7c). In mating between N2 hermaphrodites and uaDf5/+ males treated with the mock control, PCR products derived specifically from paternal uaDf5 mtDNA were detected only in early stage cross-fertilized embryos, up to 64-cell stage embryos (FIG. 2d).

[2] = tested on: PME defect of lgg-1(bp523) embryos (autophagy pathway); test: PME microscopy assay in lgg-1(bp523) crosses; settings: 50 μM, 64-cell embryos (FIG. 3c)
Description: (§3) The numbers of MTR-stained paternal mitochondrial clusters in embryos at 64-cell (a) or 16-cell (b) stage from the indicated crosses were scored. N2 males or hermaphrodites were pretreated with 0.25% ethanol (Mock), 50 μM cis-resveratrol (a), or 50 μM trans-resveratrol (b) as indicated before mating. c-g, Quantification of MTR-stained paternal mitochondrial clusters in 64-cell embryos from the indicated crosses treated with 0.25% ethanol (Mock), 50 μM cis-resveratrol, and 50 μM trans-resveratrol, respectively. Alleles used are lgg-1(bp523), cps-6(tm3222) and rad-23(tm2595).
(§4) The numbers of MTR-stained paternal mitochondrial clusters were scored as in FIG. 1a. cps-6(tm3222) and lgg-1(bp523) alleles were used in the assays. Data are mean±s.e.m. n=20 embryos (b) and 15 embryos (c) in each experiment. **P<0.01; ***P<0.001; n.s., not significant, two-sided, unpaired t-test.
(§5) To investigate how these six compounds might affect PME, the present inventors performed chemical genetic analysis to analyze the PME pathways that might be affected by the compounds. The present inventors first examined whether they might affect the paternal PME pathway mediated by the mitochondrial endonuclease CPS-6, whose activity is inhibited by oxidation and protected by reducing agents.

[3] = tested on: germline tumor in daf-16(mu86); cki-2(ok2105); glp-1(ar202) mutant (ET507); test: germline tumor model (ET507); settings: 200 μM, ET507 animals at 20° C.; for tumor size: adult day 5, vs 1% ethanol; for tumor occurring frequency: vs 1% ethanol
Description: FIG. 9. Cis-resveratrol inhibits and trans-resveratrol promotes germline tumor formation. Tumor size and tumor occurring frequency of the daf-16(mu86); cki-2(0k2105); glp-1 (ar202) mutant grown at 20° C. and treated with 1% ethanol (Mock), 200 μM cis-resveratrol (Cis), and 200 μM trans-resveratrol (Trans), respectively, are shown. Tumor assays were performed in triplicate with 100 animals per replicate. a, A five-stage classification was created to measure the tumor size in adult day 5 animals under the Normaski optic. Score 1 denotes the normal gonads seen in wild-type animals. Score 5 denotes enlarged gonads full of mitotic germ cells and without any egg or oocyte. Score 2-4 denote partially enlarged gonads. b, Tumor frequency indicates the percentage of animals with enlarged gonads (score 5). Data from three independent biological replicates are shown as mean±SEM. *P<0.05; **P<0.01; ***P<0.001, two-sided, unpaired t-test.
FIG. 14. stabilized cis-resveratrol inhibits germline tumor formation as well as cis-resveratrol. Tumor occurring frequency of the daf-16 (mu86); cki-2 (0k2105); glp-1 (ar202) mutant (ET507) grown at 20° C. and treated with 0.25% ethanol (Mock), 100 μM cis-resveratrol, and 100 μM Stabilized cis-resveratrol, respectively, are shown. Tumor assays were performed in triplicate with 100 animals per replicate. Data are mean±s.e.m. ****P<0.001, two-sided, unpaired t-test
The present inventors tested whether resveratrol isomers affect tumorigenesis in a C. elegans germline tumor model (ET507), in which three cell growth genes, daf-16, cki-2, and glp-1, are mutated, leading to uncontrolled germ cell proliferation and germline tumor.

[4] = tested on: α-synuclein-induced dopaminergic neuronal death in baIn11 animals; test: α-synuclein-based Parkinson's Disease model, DA neuronal death; settings: 100 μM; for effect on α-synuclein-induced DA neuronal death: adult day 2 baIn11 animals vs 0.25% ethanol
Excerpt: (§1) FIG. 8. […] In each experiment, 300 animals were scored to determine the percentage of animals losing at least one dopaminergic neuron in the head. Data are mean±s.e.m. *P<0.05; ***P<0.001, two-sided, unpaired t-test.
FIG. 13. […] In each experiment, 300 animals were scored to determine the percentage of animals losing at least one of the six dopaminergic neurons in the head. Data are mean±s.e.m. ****P<0.001, two-sided, unpaired t-test.
(§2) In addition to PME and apoptosis, EndoG was previously shown to play an important role in mediating dopaminergic (DA) neuronal death induced by expression of human α-synuclein, which is widely considered to be a major proponent of Parkinson's disease. However, the mechanism by which EndoG mediates α-synuclein-induced neurodegeneration is unclear. In a C. elegans α-synuclein-based Parkinson's Disease model, co-expression of GFP and human α-synuclein in C. elegans dopaminergic neurons under the control of the promoter of the dat-1 gene, which encodes a dopamine transporter, from an integrated transgene baIn11 (Pdat-1::gfp/Pdat-1::α-synuclein) caused DA neuronal death in 30% of adult baIn11 animals (FIG. 8a). The cps-6(tm3222) mutation blocked DA neuronal death in adult baIn11 animals (FIG. 8a), confirming that CPS-6 is important for α-synuclein-induced DA neuronal death.

[5] = tested on: cps-6(tm3222); baIn11 animals; test: DA neuronal death in cps-6(tm3222); baIn11 animals; settings: 100 μM, adult day 2
Excerpt: as §1, §2

[6] = tested on: PME defect of cps-6(tm3222) embryos; test: PME microscopy assay in cps-6(tm3222) crosses; settings: 50 μM, 64-cell embryos (FIG. 3e-g)
Description: as §3, §4, §5

[7] = tested on: cross-fertilized embryos with persistent uaDf5 paternal mitochondria (loss of lgg-1); test: embryonic lethality caused by persistent uaDf5 paternal mitochondria; settings: 100 μM, males pretreated eight hours before mating, 25° C.
Description: FIG. 10. Trans-resveratrol reduces embryonic lethality through enhancing removal of mutant paternal mitochondria. The embryonic lethality rate was scored in cross-fertilized embryos from crosses of the indicated genotypes. Males were pretreated with either 0.5% ethanol (Mock) or […] trans-resveratrol (trans) for eight hours before mating. All males carried smIs42 to assist identification of zygotes. Data are means SEM; n>200 embryos per cross at 25° C. n.s., no significant difference; *P<0.05 using two-sided, unpaired t-test.
Several studies have shown that abnormal persistence of paternal mitochondria is detrimental to normal development and causes various deficiencies, including neurological and muscular defects, which lack treatment options.

`Oc1ccc(/C=C\c2cc(O)cc(O)c2)cc1` [cis-resveratrol] was tested, and the “fate of paternal uaDf5 mtDNA” value [1] was “persistence of uaDf5 mtDNA to the late 4-fold embryos”, the “effect on PME defects of the lgg-1(bp523) mutant” value [2] was “enhanced” and the tumor size [3] was “reduces”. For the same molecule, the tumor occurring frequency [3] was “reduces”, the “adult baIn11 animals protected from neurodegeneration” value ([4]; adult day 2) was 94% and the “effect on α-synuclein-induced DA neuronal death” value [4] was “strongly inhibited DA neuronal death”. The “dopaminergic neuronal loss in cps-6(tm3222); baIn11 animals” value [5] was “did not cause any dopaminergic neuronal loss” and the “effect on PME defect in cps-6(tm3222) mutant and cps-6; lgg-1 and cps-6; rad-23 double mutants” value [6] was “neither cis-resveratrol nor trans-resveratrol could enhance or suppress the PME defect”.

`Oc1ccc(/C=C/c2cc(O)cc(O)c2)cc1` [trans-resveratrol, 3,5,4′-trihydroxy-trans-stilbene] was tested, and the “embryonic lethality caused by uaDf5 paternal mitochondria” value [7] was “significantly reduced embryonic lethality”, the “fate of paternal uaDf5 mtDNA” value [1] was “accelerated degradation of uaDf5 mtDNA” and the “effect on PME defects of the lgg-1(bp523) mutant” value [2] was “suppressed”. The tumor size [3] was “increases”, the tumor occurring frequency [3] was “increases” and the “adult baIn11 animals with neurodegeneration (DA neuronal loss)” value ([4]; adult day 2, mock 30%) was 40%. The “effect on α-synuclein-induced DA neuronal death” value [4] was “enhanced dopaminergic neuron loss”, the “dopaminergic neuronal loss in cps-6(tm3222); baIn11 animals” value [5] was “did not cause any dopaminergic neuronal loss” and the “effect on PME defect in cps-6(tm3222) mutant and cps-6; lgg-1 and cps-6; rad-23 double mutants” value [6] was “neither cis-resveratrol nor trans-resveratrol could enhance or suppress the PME defect”.
